# From patent US10899753B2, “Inhibiting agents for Bruton's tyrosine kinase” (BIOGEN MA INC., priority 2018, dated 2021)
# Tests used:
# BTK [1] = target: T1, BTK (Homo sapiens (Human), UniProt Q06187); experiment: In Vitro BTK Kinase Assay: BTK-POLYGAT-LS ASSAY; format: biochemical; conditions: fluorescein-labeled polyGAT peptide 100 nM, BTK enzyme 0.25 nM, 30 minutes, TRF
# Procedure: In Vitro BTK Kinase Assay: BTK-POLYGAT-LS ASSAY
# The purpose of the BTK in vitro assay is to determine compound potency against BTK through the measurement of IC50. […] For a typical assay, a […] aliquot of a ATP/peptide master mix (final concentration; ATP […], polyGAT 100 nM) in kinase buffer (10 mM Tris-HCl pH 7.5, 10 mM MgCl2, 200 μM Na3PO4, 5 mM DTT, 0.01% Triton X-100, and 0.2 mg/ml casein) is added to each well. […] The assay is incubated for 30 minutes before being stopped with 28 μL of a 50 mM EDTA solution. […] The plate is covered and incubated for 45 minutes at room temperature. Time resolved fluorescence (TRF) on Molecular Devices M5 (332 nm excitation; 488 nm emission; 518 nm fluorescein emission) is measured.
# BTK [2] = target: T1, BTK; experiment: In Vitro PD Assay in Human Whole Blood (pBTK assay); format: cell-based; conditions: human heparinized whole blood, 37° C. for 30 min, total BTK capture and phosphotyrosine detection (ECL)
# Procedure: In Vitro PD Assay in Human Whole Blood
# Human heparinized venous blood was purchased from Bioreclamation, Inc. or SeraCare Life Sciences and shipped overnight. Whole blood was aliquoted into 96-well plate and “spiked” with serial dilutions of test compound in DMSO or with DMSO without drug. The final concentration of DMSO in all wells was 0.1%. The plate was incubated at 37° C. for 30 min. Lysis buffer containing protease and phosphatase inhibitors was added to the drug-containing samples and one of the DMSO-only samples (+PPi, high control), while lysis buffer containing protease inhibitors was added to the other DMSO-only samples (−PPi, low control). All of the lysed whole blood samples were subjected to the total BTK capture and phosphotyrosine detection method described in US20160311802, incorporated herein by reference.
# T1 sequence (Q06187 whole entry): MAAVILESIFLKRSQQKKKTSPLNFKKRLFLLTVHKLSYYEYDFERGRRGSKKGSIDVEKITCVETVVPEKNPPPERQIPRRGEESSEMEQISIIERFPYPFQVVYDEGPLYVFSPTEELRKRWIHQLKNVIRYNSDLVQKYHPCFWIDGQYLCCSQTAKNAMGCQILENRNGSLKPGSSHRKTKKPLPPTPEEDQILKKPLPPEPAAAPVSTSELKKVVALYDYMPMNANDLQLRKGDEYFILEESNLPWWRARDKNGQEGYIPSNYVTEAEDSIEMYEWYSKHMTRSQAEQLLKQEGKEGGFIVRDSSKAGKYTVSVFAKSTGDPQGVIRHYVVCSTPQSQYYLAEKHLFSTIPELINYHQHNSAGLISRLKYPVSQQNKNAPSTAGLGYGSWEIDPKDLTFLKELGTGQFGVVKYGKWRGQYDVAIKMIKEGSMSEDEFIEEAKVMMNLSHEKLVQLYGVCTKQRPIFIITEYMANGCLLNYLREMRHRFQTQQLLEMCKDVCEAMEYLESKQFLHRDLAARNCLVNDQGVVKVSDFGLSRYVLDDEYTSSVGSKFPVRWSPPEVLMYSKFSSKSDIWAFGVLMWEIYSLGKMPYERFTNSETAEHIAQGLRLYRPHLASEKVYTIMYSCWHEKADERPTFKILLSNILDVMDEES
Compound,IC50 (BTK [1]) [nM],IC50 (BTK [2]) [nM]
"Cc1cc(-c2ncnc(Nc3ccn(C)n3)n2)ccc1CNC(=O)c1noc(C(C)(C)CF)n1 [Compound 44, 5-(1-fluoro-2-methylpropan-2-yl)-N-(2-methyl-4-(4-((1-methyl-1H-pyrazol-3-yl)amino)-1,3,5-triazin-2-yl)benzyl)-1,2,4-oxadiazole-3-carboxamide]",1 to 10,100 to 500
"Cc1c(CNC(=O)c2noc(C(C)(C)CF)n2)ccc(-c2ncnc(Nc3ccn(C)n3)n2)c1F [Compound 45, N-(3-fluoro-2-methyl-4-(4-((1-methyl-1H-pyrazol-3-yl)amino)-1,3,5-triazin-2-yl)benzyl)-5-(1-fluoro-2-methylpropan-2-yl)-1,2,4-oxadiazole-3-carboxamide]",< 1,100 to 500
"Cc1c(CNC(=O)c2nc(C3(CF)CC3)no2)ccc(-c2ncnc(Nc3ccn(C)n3)n2)c1F [Compound 46, N-(3-fluoro-2-methyl-4-(4-((1-methyl-1H-pyrazol-3-yl)amino)-1,3,5-triazin-2-yl)benzyl)-3-(1-(fluoromethyl)cyclopropyl)-1,2,4-oxadiazole-5-carboxamide]",1 to 10,500 to 10000
"Cc1c(CNC(=O)c2nc(C3(CF)CC3)no2)ccc(-c2ncnc(Nc3cnn(C)c3)n2)c1F [Compound 47, N-(3-fluoro-2-methyl-4-(4-((1-methyl-1H-pyrazol-4-yl)amino)-1,3,5-triazin-2-yl)benzyl)-3-(1-(fluoromethyl)cyclopropyl)-1,2,4-oxadiazole-5-carboxamide]",< 1,< 100
"Cc1cc(-c2ncnc(Nc3cnn(C)c3)n2)ccc1CNC(=O)c1nc(C2(CF)CC2)no1 [Compound 48, 3-(1-(fluoromethyl)cyclopropyl)-N-(2-methyl-4-(4-((1-methyl-1H-pyrazol-4-yl)amino)-1,3,5-triazin-2-yl)benzyl)-1,2,4-oxadiazole-5-carboxamide]",< 1,100 to 500
"Cc1cc(-c2ncnc(Nc3cnn(C)c3)n2)ccc1CNC(=O)c1noc(C2(CF)CC2)n1 [Compound 49, 5-(1-(fluoromethyl)cyclopropyl)-N-(2-methyl-4-(4-((1-methyl-1H-pyrazol-4-yl)amino)-1,3,5-triazin-2-yl)benzyl)-1,2,4-oxadiazole-3-carboxamide]",< 1,100 to 500
"Cc1c(CNC(=O)c2noc(C3(CF)CC3)n2)ccc(-c2ncnc(Nc3cnn(C)c3)n2)c1F [Compound 50, N-(3-fluoro-2-methyl-4-(4-((1-methyl-1H-pyrazol-4-yl)amino)-1,3,5-triazin-2-yl)benzyl)-5-(1-(fluoromethyl)cyclopropyl)-1,2,4-oxadiazole-3-carboxamide]",< 1,< 100
"Cc1cc(-c2ncnc(Nc3cnn(C)c3)n2)c(F)cc1CNC(=O)c1noc(C2(CF)CC2)n1 [Compound 51, N-(5-fluoro-2-methyl-4-(4-((1-methyl-1H-pyrazol-4-yl)amino)-1,3,5-triazin-2-yl)benzyl)-5-(1-(fluoromethyl)cyclopropyl)-1,2,4-oxadiazole-3-carboxamide]",< 1,100 to 500
"Cc1c(CNC(=O)c2noc(C3(C(F)(F)F)CC3)n2)ccc(-c2ncnc(Nc3ccn(C)n3)n2)c1F [Compound 52, N-(3-fluoro-2-methyl-4-(4-((1-methyl-1H-pyrazol-3-yl)amino)-1,3,5-triazin-2-yl)benzyl)-5-(1-(trifluoromethyl)cyclopropyl)-1,2,4-oxadiazole-3-carboxamide]",1 to 10,500 to 10000
"Cn1ccc(Nc2ncnc(-c3ccc4c(c3)CCCC[C@H]4NC(=O)c3noc(C(C)(C)CF)n3)n2)n1 [Compound 53, (R)-5-(1-fluoro-2-methylpropan-2-yl)-N-(2-(4-((1-methyl-1H-pyrazol-3-yl)amino)-1,3,5-triazin-2-yl)-6,7,8,9-tetrahydro-5H-benzo[7]annulen-5-yl)-1,2,4-oxadiazole-3-carboxamide]",< 1,100 to 500
"Cn1ccc(Nc2ncnc(-c3ccc(CNC(=O)c4noc(C(C)(C)CF)n4)c(C4CC4)c3)n2)n1 [Compound 54, N-(2-cyclopropyl-4-(4-((1-methyl-1H-pyrazol-3-yl)amino)-1,3,5-triazin-2-yl)benzyl)-5-(1-fluoro-2-methylpropan-2-yl)-1,2,4-oxadiazole-3-carboxamide]",< 1,100 to 500
"Cn1ccc(Nc2ncnc(-c3ccc(CNC(=O)c4nc(C(C)(C)C)no4)c(C4CC4)c3F)n2)n1 [Compound 55, 3-(tert-butyl)-N-(2-cyclopropyl-3-fluoro-4-(4-((1-methyl-1H-pyrazol-3-yl)amino)-1,3,5-triazin-2-yl)benzyl)-1,2,4-oxadiazole-5-carboxamide]",< 1,500 to 10000
"Cc1cc(-c2ncnc(Nc3cnn(C)c3)n2)c(F)cc1CNC(=O)c1noc(C(C)(C)C)n1 [Compound 56, 5-(tert-butyl)-N-(5-fluoro-2-methyl-4-(4-((1-methyl-1H-pyrazol-4-yl)amino)-1,3,5-triazin-2-yl)benzyl)-1,2,4-oxadiazole-3-carboxamide]",< 1,100 to 500
"Cc1cc(-c2ncnc(Nc3cnn(C)c3)n2)c(F)cc1CNC(=O)c1nc(C(C)(C)C)no1 [Compound 57, 3-(tert-butyl)-N-(5-fluoro-2-methyl-4-(4-((1-methyl-1H-pyrazol-4-yl)amino)-1,3,5-triazin-2-yl)benzyl)-1,2,4-oxadiazole-5-carboxamide]",< 1,100 to 500
"Cc1cc(-c2ncnc(Nc3cnn(C)c3)n2)c(F)cc1CNC(=O)c1nnn(C(C)(C)C)n1 [Compound 58, 2-(tert-butyl)-N-(5-fluoro-2-methyl-4-(4-((1-methyl-1H-pyrazol-4-yl)amino)-1,3,5-triazin-2-yl)benzyl)-2H-tetrazole-5-carboxamide]",< 1,100 to 500
"Cc1cc(-c2ncnc(Nc3cnn(C)c3)n2)c(F)cc1CNC(=O)c1noc(C2(C)CC2)n1 [Compound 59, N-(5-fluoro-2-methyl-4-(4-((1-methyl-1H-pyrazol-4-yl)amino)-1,3,5-triazin-2-yl)benzyl)-5-(1-methylcyclopropyl)-1,2,4-oxadiazole-3-carboxamide]",< 1,100 to 500
"Cc1cc(-c2ncnc(Nc3cnn(C)c3)n2)c(F)cc1CNC(=O)c1nc(C2(CF)CC2)no1 [Compound 60, N-(5-fluoro-2-methyl-4-(4-((1-methyl-1H-pyrazol-4-yl)amino)-1,3,5-triazin-2-yl)benzyl)-3-(1-(fluoromethyl)cyclopropyl)-1,2,4-oxadiazole-5-carboxamide]",< 1,100 to 500
"Cc1cc(-c2ncnc(Nc3cnn(C)c3)n2)c(F)cc1CNC(=O)c1cnn(C(C)(C)C)c1 [Compound 61, 1-(tert-butyl)-N-(5-fluoro-2-methyl-4-(4-((1-methyl-1H-pyrazol-4-yl)amino)-1,3,5-triazin-2-yl)benzyl)-1H-pyrazole-4-carboxamide]",< 1,100 to 500
"Cc1cc(-c2ncnc(Nc3cnn(C)c3)n2)c(F)cc1CNC(=O)c1cn(C(C)(C)C)nn1 [Compound 62, 1-(tert-butyl)-N-(5-fluoro-2-methyl-4-(4-((1-methyl-1H-pyrazol-4-yl)amino)-1,3,5-triazin-2-yl)benzyl)-1H-1,2,3-triazole-4-carboxamide]",1 to 10,500 to 10000
"Cc1cc(-c2ncnc(Nc3cnn(C)c3)n2)c(F)cc1CNC(=O)c1cc(C(C)(C)C)no1 [Compound 63, 3-(tert-butyl)-N-(5-fluoro-2-methyl-4-(4-((1-methyl-1H-pyrazol-4-yl)amino)-1,3,5-triazin-2-yl)benzyl)isoxazole-5-carboxamide]",< 1,500 to 10000
"Cc1cc(-c2ncnc(Nc3cnn(C)c3)n2)c(F)cc1CNC(=O)c1cc(C(C)(C)C)on1 [Compound 64, 5-(tert-butyl)-N-(5-fluoro-2-methyl-4-(4-((1-methyl-1H-pyrazol-4-yl)amino)-1,3,5-triazin-2-yl)benzyl)isoxazole-3-carboxamide]",< 1,500 to 10000
"Cc1cc(-c2ncnc(Nc3cnn(C)c3)n2)c(F)cc1CNC(=O)c1coc(C(C)(C)C)n1 [Compound 65, 2-(tert-butyl)-N-(5-fluoro-2-methyl-4-(4-((1-methyl-1H-pyrazol-4-yl)amino)-1,3,5-triazin-2-yl)benzyl)oxazole-4-carboxamide]",< 1,500 to 10000
"Cn1ccc(Nc2ncnc(-c3ccc(CNC(=O)c4nc(C(C)(C)C)no4)c(C(F)F)c3F)n2)n1 [Compound 66, 3-(tert-butyl)-N-(2-(difluoromethyl)-3-fluoro-4-(4-((1-methyl-1H-pyrazol-3-yl)amino)-1,3,5-triazin-2-yl)benzyl)-1,2,4-oxadiazole-5-carboxamide]",1 to 10,500 to 10000
